Values after ≈ are worked out from the molar mass of the structure shown.
What was measured:
Type in all cases: in vivo
[1] = system: housefly (Musca domestica); assay: Housefly spray test (HF); conditions: 72 h, contact activity rating, 50% mortality, three days
Procedure: (§1) The compounds are evaluated for biological activity against the following representative pests: Mexican bean beetle (Epilachna varivestis), Southern army worm (Prodenia eridania), housefly (Musca domestica), bean aphid (Aphis fabae), and red spider mite (Tetranychus sp.). The last two pests are treated both by contact and systemic application.
(§2) For purposes of comparison, results obtained with known Compound 7472, Compound 7577, and aldicarb are included in the test results. Each test compound is rated using the following scale:
This test determines the insecticidal activity of the compound being tested against adult houseflies, Musca domestica. Stock formulations containing 500 ppm of each test chemical are prepared using the procedure described in Example 15 and are diluted to obtain the appropriate lower concentrations.
Ten adult flies are placed in a cylindrical screen cage 11/2 by 4 inches fabricated from 20-mesh stainless steel screening and are sprayed with 50 ml of the stock or diluted formulation. The flies are supplied food and drink from a dextrose solution by draping a paper wick over the outside of the screen cylinder and are able to feed and drink ad libitum. Percent mortality obtained is determined three days after treatment. Results of this test are shown in Table 7 as HF (housefly spray test).

[2] = system: Southern army worm (Prodenia eridania); assay: Southern army worm spray test (AW); conditions: 72 h; contact activity rating, 50% mortality, three days
Procedure: as §1, §2
Southern Army Worm Spray Test
Paired fully expanded primary leaves excised from Scarlet runner bean plants are maintained in plastic tubes containing water and sprayed with the test formulation prepared as described in Example 15. After the spray deposit on the leaves is dry, the paired leaves are separated. One leaf is placed onto 1.5 percent water agar and infested with 10 newly hatched Southern army worm larvae. The covered test receptacle is held at 72° F for three days and then the percent mortality is determined. Results of this test are shown in Table 7 as AW (Southern army worm spray test).

[3] = system: root-knot nematodes (Meloidogyne spp.); assay: Root-knot nematocide test
Procedure: Root-knot Nematocide Test
This test is an evaluation of the effectiveness of the compound being tested against infection by root-knot nematodes (Meloidogyne spp.).
Composted greenhouse soil, diluted by one-third with clean washed sand, is infected with about two grams of knotted or galled tomato roots per pot. Treatment is accomplished by applying 25 ml of the formulated compound onto the infested soil. The formulation contains 0.056 g of Compound 7960, 1.0 ml stock emulsifier solution (0.25% Triton X-155 in acetone by volume), and 24.0 ml deionized water, giving a concentration of 2240 ppm. Lower concentrations are achieved by dilution.
After treatment with the test formulation, the soil, inoculum, and formulation are thoroughly mixed, returned to the pot, and the mixture incubated for seven days at 20° C and constant moisture. After incubation, two seedlings of Rutgers tomato transplants and three garden nasturtium (Nasturtium spp.) seeds are set in each pot. Roots are removed from the soil after three weeks of growth and rated for gall (root-knot nematode infection) formation. Nasturtium roots are evaluated only when necrosis of the tomato host has occurred. […] Each of the root systems is rated separately and the average is multiplied by 10 and subtracted from 100 to give percent nematode control.

Structure (SMILES)	LC50 [1]	LC50 [2]	other results
CNC(=O)ON=C(C)C(C)(C)C [Compound 7472, 2,2-dimethyl-3-methylcarbamyloximinobutane, reference compound]	> 500 µg/mL	> 500 µg/mL	–
CNC(=O)ON=C(CSCC(=O)OC)C(C)(C)C [Compound 7503, 1-carbomethoxymethylthio-3,3-dimethyl-2-methylcarbamyloximinobutane]	> 500 µg/mL	> 500 µg/mL	–
CNC(=O)ON=C(C)C(C)(C)SC [Compound 7577, 3-methyl-2-methylcarbamyloximino-3-methylthiobutane, reference compound]	> 500 µg/mL	> 500 µg/mL	–
CNC(=O)ON=C(C)CSC [Compound 7603, 2-methylcarbamyloximino-1-methylthiopropane]	16 to 32 µg/mL (≈ 90.8 to 182 µM)	> 500 µg/mL	–
CNC(=O)ON=C(CSc1ccccc1)C(C)(C)C [Compound 7718, 3,3-dimethyl-2-methylcarbamyloximino-1-phenylthiobutane]	250 to 500 µg/mL (≈ 892 to 1780 µM)	> 500 µg/mL	–
CCNC(=O)ON=C(CSC)C(C)(C)C [Compound 7797, 2-ethylcarbamyloximino-3,3-dimethyl-1-methylthiobutane]	64 to 128 µg/mL (≈ 275 to 551 µM)	> 500 µg/mL	–
C=CCNC(=O)ON=C(CSC)C(C)(C)C [Compound 7799, 2-allylcarbamyloximino-3,3-dimethyl-1-methylthiobutane]	128 to 250 µg/mL (≈ 524 to 1020 µM)	> 500 µg/mL	–
CNC(=O)ON=C(C[S+](C)[O-])C(C)(C)C (centres unmarked) [Compound 7804, 3,3-dimethyl-2-methylcarbamyloximino-1-methylsulfinylbutane]	128 to 250 µg/mL (≈ 546 to 1070 µM)	128 to 250 µg/mL (≈ 546 to 1070 µM)	–
CSCC(=NOC(N)=O)C(C)(C)C [Compound 7859, 2-carbamyloximino-3,3-dimethyl-1-methylthiobutane]	> 500 µg/mL	> 500 µg/mL	–
CCSCC(=NOC(=O)NC)C(C)(C)C [Compound 7862, 1-ethylthio-3,3-dimethyl-2-methylcarbamyloximinobutane]	64 to 128 µg/mL (≈ 275 to 551 µM)	> 500 µg/mL	–
CNC(=O)ON=C(CSC)C(C)C [Compound 7867, 3-methyl-2-methylcarbamyloximino-1-methylthiobutane]	64 to 128 µg/mL (≈ 313 to 627 µM)	> 500 µg/mL	–
CSCC(=NOC(=O)N(C)C)C(C)(C)C [Compound 7871, 3,3-dimethyl-2-dimethylcarbamyloximino-1-methylthiobutane]	> 500 µg/mL	> 500 µg/mL	–
C=CCSCC(=NOC(=O)NC)C(C)(C)C [Compound 7897, 1-allylthio-3,3-dimethyl-2-methylcarbamyloximinobutane]	64 to 128 µg/mL (≈ 262 to 524 µM)	> 500 µg/mL	–
CCC(CSC)=NOC(=O)NC [Compound 7916, 2-methylcarbamyloximino-1-methylthiobutane]	64 to 128 µg/mL (≈ 336 to 673 µM)	> 500 µg/mL	–
CCCC(C)(C)C(CSC)=NOC(=O)NC [Compound 7934, 3,3-dimethyl-2-methylcarbamyloximino-1-methylthiohexane]	> 500 µg/mL	> 500 µg/mL	–
CNC(=O)ON=C(CSC)C(C)(C)SC [Compound 7960, 1,3-bis(methylthio)-3-methyl-2-methylcarbamyloximinobutane]	> 500 µg/mL	> 500 µg/mL	Percent Control (nematode) ([3]; 0.5 lb/A): 97%; Percent Control (nematode) ([3]; 1 lb/A): 100%; Percent Control (nematode) ([3]; 2 lb/A): 100%; Percent Control (nematode) ([3]; 4 lb/A): 100%; Percent Control (nematode) ([3]; 8 lb/A): 100%
CNC(=O)ON=C(CSC#N)C(C)(C)C [Compound 7991, 3,3-dimethyl-2-methylcarbamyloximino-1-thiocyanatobutane]	> 500 µg/mL	> 500 µg/mL	–
CNC(=O)ON=C(C(C)SC)C(C)(C)C (centres unmarked) [Compound 8071, 2,2-dimethyl-3-methylcarbamyloximino-4-methylthiopentane]	> 500 µg/mL	> 500 µg/mL	–
CNC(=O)ON=C(CCSC)C(C)(C)C [Compound 8111, 4,4-dimethyl-3-methylcarbamyloximino-1-methylthiopentane]	250 to 500 µg/mL (≈ 1080 to 2150 µM)	> 500 µg/mL	–
CNC(=O)ON=C(C1SCCS1)C(C)(C)C [Compound 8423, 1,1-ethylenedithio-3,3-dimethyl-2-methylcarbamyloximinobutane]	–	–	Percent Control (nematode) ([3]; 2 lb/A): 60%; Percent Control (nematode) ([3]; 4 lb/A): 90%; Percent Control (nematode) ([3]; 8 lb/A): 100%
CNC(=O)ON=C(CSC)C1CC1 [Compound 8465, 1-cyclopropyl-1-methylcarbamyloximino-2-methylthioethane]	128 to 250 µg/mL (≈ 633 to 1240 µM)	250 to 500 µg/mL (≈ 1240 to 2470 µM)	–
CNC(=O)ON=C(CSC)CC(C)(C)C [Compound 8519, 4,4-dimethyl-2-methylcarbamyloximino-1-methylthiopentane]	> 500 µg/mL	> 500 µg/mL	–
CCC(C)(C)C(CSC)=NOC(=O)NC [Compound 8520, 3,3-dimethyl-2-methylcarbamyloximino-1-methylthiopentane]	> 500 µg/mL	> 500 µg/mL	–
CNC(=O)ON=C(CS(C)(=O)=O)C(C)(C)C [Compound 8868, 3,3-dimethyl-2-methylcarbamyloximino-1-methylsulfonylbutane]	128 to 250 µg/mL (≈ 511 to 999 µM)	> 500 µg/mL	–
CNC(=O)ON=C(CN=[N+]=[N-])C(C)(C)C [Compound 8997, 1-azido-3,3-dimethyl-2-methylcarbamyloximinobutane]	128 to 250 µg/mL (≈ 600 to 1170 µM)	128 to 250 µg/mL (≈ 600 to 1170 µM)	Percent Control (nematode) ([3]; 2 lb/A): 0%; Percent Control (nematode) ([3]; 4 lb/A): 100%; Percent Control (nematode) ([3]; 8 lb/A): 100%
CNC(=O)ON=C(CSCCSC)C(C)(C)C [Compound 9026, 3,3-dimethyl-2-methylcarbamyloximino-1-(2-methylthioethylthio)-butane]	> 500 µg/mL	> 500 µg/mL	Percent Control (nematode) ([3]; 1 lb/A): 30%; Percent Control (nematode) ([3]; 2 lb/A): 60%; Percent Control (nematode) ([3]; 4 lb/A): 70%; Percent Control (nematode) ([3]; 8 lb/A): 90%
CCCC(CSC)=NOC(=O)NC [Compound 9057, 2-methylcarbamyloximino-1-methylthiopentane]	250 to 500 µg/mL (≈ 1220 to 2450 µM)	> 500 µg/mL	–
CNC(=O)ON=C(CSC)CC(C)C [Compound 9058, 4-methyl-2-methylcarbamyloximino-1-methylthiopentane]	250 to 500 µg/mL (≈ 1150 to 2290 µM)	> 500 µg/mL	–
CNC(=O)O/N=C/C(C)(C)SC [aldicarb, reference compound]	4 to 8 µg/mL (≈ 21 to 42 µM)	> 500 µg/mL	–
